Results on 6 compounds are retold here after DBAASP.

≈ marks a conversion by molar mass, not a printed value.

Test systems include Acinetobacter baumannii; Enterobacter cloacae; Klebsiella aerogenes; Klebsiella oxytoca; Klebsiella pneumoniae; Proteus mirabilis; Pseudomonas aeruginosa; Salmonella enterica; Serratia marcescens; Staphylococcus aureus; Candida albicans CA1; Escherichia coli EC16; Escherichia coli EC18; Escherichia coli CFT073; Escherichia coli UTI89; Escherichia coli; Escherichia coli E44813.
Holding throughout (assay): ≥ marks a high value that may be exact or a test limit, other limits are often not marked, values filed in µg/mL are converted to µM
The test system of experiment [1] is Escherichia coli ATCC 35218.
The test system of experiment [2] is Staphylococcus epidermidis.
In experiment [3] the test system is Staphylococcus haemolyticus.
The subject of experiment [4] is Staphylococcus saprophyticus.
The test system of experiment [5] is Acinetobacter baumannii AB1.
For experiment [6], the system named is Candida albicans ATCC 90029.
Experiment [7] relates to Candida krusei ATCC 40147.
Experiment [8] concerns Candida parapsilosis ATCC 90018.
Experiment [9] relates to Candida tropicalis ATCC 750.
Experiment [10] concerns Klebsiella pneumoniae KP1.
Experiment [11] has as its system Pseudomonas aeruginosa PA14.
The subject of experiment [12] is Escherichia coli ATCC 25922.
The subject of experiment [13] is Pseudomonas aeruginosa ATCC 27853.
Experiment [14] has as its system Pseudomonas aeruginosa PAO1.
The test system of experiment [15] is Pseudomonas aeruginosa 885149.
Experiment [16] has as its system Pseudomonas aeruginosa 891.
Experiment [17] has as its system Staphylococcus aureus ATCC 25923.
Experiment [18] concerns Staphylococcus aureus MIU-68A.
Experiment [19] deals with Bacillus subtilis CICC 24434.
The subject of experiment [20] is Listeria monocytogenes CICC 21533.
For experiment [21], the system named is Pasteurella multocida C48-3.
In experiment [22] the test system is Salmonella enterica subsp. enterica serovar Choleraesuis C78-1.
Experiment [23] deals with Salmonella typhimurium SL1344.
Experiment [24] has as its system Staphylococcus epidermidis LY8.
Experiment [25] relates to Aspergillus oryzae NBRC 100959.
The subject of experiment [26] is Candida viswanathii NBRC 10321.
In experiment [27] the test system is Escherichia coli NBRC 3972.
The test system of experiment [28] is Micrococcus luteus NBRC 3333.
The subject of experiment [29] is Staphylococcus epidermidis NBRC 12993.

As for `CC[C@H](C)[C@H](NC(=O)[C@H](Cc1ccc(O)cc1)NC(=O)[C@H](Cc1ccc(O)cc1)NC(=O)[C@H](CO)NC(=O)CNC(=O)CNC(=O)[C@H](CC(N)=O)NC(=O)[C@H](CCCN=C(N)N)NC(=O)[C@H](CC(C)C)NC(=O)[C@@H](N)Cc1ccccc1)C(=O)N[C@H](C(=O)N1CCC[C@H]1C(=O)N[C@@H](C)C(=O)N[C@@H](Cc1ccccc1)C(=O)N[C@@H](CCCN=C(N)N)C(=O)NCC(=O)N[C@@H](CCCCN)C(=O)NCC(=O)O)C(C)C` [FLRNGGSYYIVPAFRGKG], the MIC is 10 µM (≈ 20 µg/mL) against Acinetobacter baumannii; 10 µM (≈ 20 µg/mL) in the experiment with Enterobacter cloacae; 10 µM (≈ 20 µg/mL) in [1]; 10 µM (≈ 20 µg/mL) with Klebsiella aerogenes; 10 µM (≈ 20 µg/mL) with Klebsiella oxytoca; over 10 µM in the experiment on Klebsiella pneumoniae. The minimum inhibitory concentration (MIC) against Proteus mirabilis was 10 µM (≈ 20 µg/mL); in the experiment with Pseudomonas aeruginosa it was over 10 µM; in the experiment on Salmonella enterica, 10 µM (≈ 20 µg/mL); with Serratia marcescens it was 10 µM (≈ 20 µg/mL); with Staphylococcus aureus, over 10 µM; in experiment [2] it was 10 µM (≈ 20 µg/mL). Also, the MIC in experiment [3] and in [4] was 10 µM (≈ 20 µg/mL) each time.
As for `CC[C@H](C)[C@H](NC(=O)CNC(=O)[C@H](C)NC(=O)[C@H](CCCCN)NC(=O)CNC(=O)[C@H](CCSC)NC(=O)[C@H](CCC(=O)O)NC(=O)[C@H](CCCCN)NC(=O)[C@@H](NC(=O)[C@@H](NC(=O)[C@H](CCCCN)NC(=O)[C@@H](NC(=O)[C@@H](NC(=O)[C@H](CCCCN)NC(=O)[C@H](CC(=O)O)NC(=O)[C@H](CCCCN)NC(=O)[C@H](Cc1cnc[nH]1)NC(=O)[C@H](CCCCN)NC(=O)[C@H](CC(N)=O)NC(=O)[C@H](Cc1c[nH]c2ccccc12)NC(=O)[C@H](Cc1c[nH]c2ccccc12)NC(=O)[C@H](CC(=O)O)NC(=O)[C@H](CCCCN)NC(=O)[C@H](CC(C)C)NC(=O)CN)[C@@H](C)CC)C(C)C)C(C)C)C(C)C)C(=O)N[C@@H](CC(N)=O)C(=O)N[C@@H](C)C(=O)N[C@@H](C)C(N)=O` [GLKDWWNKHKDKIVKVVKEMGKAGINAA], the MIC in experiment [5] was 10 µM (≈ 31.6 µg/mL); in experiment [6] it was 10 µM (≈ 31.6 µg/mL); with Candida albicans CA1, 5 µM (≈ 15.8 µg/mL); in experiment [7] it was 2.5 µM (≈ 7.91 µg/mL); in experiment [8] it was 10 µM (≈ 31.6 µg/mL); in experiment [9], 10 µM (≈ 31.6 µg/mL). Besides, the MIC in the experiment with Escherichia coli EC16 came to 5 µM (≈ 15.8 µg/mL); in the experiment on Escherichia coli EC18 it was 10 µM (≈ 31.6 µg/mL); in [10], 5 µM (≈ 15.8 µg/mL); in [11] it was 5 µM (≈ 15.8 µg/mL).
Turning to `CC[C@H](C)[C@H](N)C(=O)N[C@@H](C)C(=O)N[C@@H](C)C(=O)N[C@@H](CCC(=O)O)C(=O)N[C@@H](CCCN=C(N)N)C(=O)N[C@@H](CCCN=C(N)N)C(=O)N[C@@H](Cc1ccc(O)cc1)C(=O)N[C@@H](C)C(=O)N[C@H](C(=O)N[C@H](C(=O)N[C@@H](Cc1ccc(O)cc1)C(=O)N[C@@H](CCC(N)=O)C(=O)N[C@@H](C)C(=O)N[C@@H](CCCN=C(N)N)C(=O)N[C@@H](CC(C)C)C(=O)N[C@@H](Cc1c[nH]c2ccccc12)C(=O)N[C@@H](C)C(=O)N[C@@H](Cc1ccccc1)C(=O)O)[C@@H](C)CC)[C@@H](C)O` [IAAERRYATIYQARLWAF], the minimum inhibitory concentration (MIC) was 56.8 µM (≈ 125 µg/mL) in [12]; at least 56.8 µM in the experiment with Escherichia coli CFT073; at least 56.8 µM against Escherichia coli UTI89; 80.4 µM (≈ 177 µg/mL) in the experiment on Escherichia coli; 56.8 µM (≈ 125 µg/mL) in experiment [13]; 56.8 µM (≈ 125 µg/mL) in experiment [14].
On to `CC[C@H](C)[C@H](NC(=O)[C@@H](N)CCCCN)C(=O)N[C@@H](CCCN=C(N)N)C(=O)N[C@H](C(=O)N[C@@H](CCCN=C(N)N)C(=O)N[C@@H](CC(C)C)C(=O)N[C@@H](CO)C(=O)N[C@@H](C)C(=O)O)C(C)C` [KIRVRLSA], for which the minimum inhibitory concentration (MIC) in experiment [12] was 17 µM (≈ 16 µg/mL); in the experiment with Escherichia coli, 136 µM (≈ 128 µg/mL); in the experiment with Klebsiella pneumoniae it was over 136 µM; in experiment [15], at least 34 µM; in [16], 17 µM (≈ 16 µg/mL); in experiment [13], 17 µM (≈ 16 µg/mL). The values for the MIC in experiment [17] and in experiment [18] were 136 µM (≈ 128 µg/mL) and at least 136 µM, respectively.
Regarding `CC[C@H](C)[C@H](NC(=O)[C@@H](NC(=O)[C@@H](N)CCCN=C(N)N)[C@@H](C)CC)C(=O)N[C@@H](CC(=O)O)C(=O)N[C@@H](CCCN=C(N)N)C(=O)N[C@@H](CC(C)C)C(=O)N[C@@H](Cc1c[nH]c2ccccc12)C(=O)N[C@@H](CCCN=C(N)N)C(=O)N[C@H](C(=O)N[C@@H](CCCN=C(N)N)C(=O)N[C@@H](CCCN=C(N)N)C(=O)N1CCC[C@H]1C(=O)N[C@@H](CCC(N)=O)C(=O)N[C@@H](CCCCN)C(=O)N1CCC[C@H]1C(=O)N[C@@H](CCCCN)C(=O)N[C@@H](Cc1ccccc1)C(=O)N[C@H](C(=O)N[C@H](C(=O)N[C@H](C(=O)N[C@@H](Cc1c[nH]c2ccccc12)C(=O)N[C@H](C(=O)N[C@@H](CCCN=C(N)N)C(=O)O)C(C)C)C(C)C)[C@@H](C)O)C(C)C)C(C)C` [RIIDRLWRVRRPQKPKFVTVWVR], the minimal inhibitory concentration (MIC) in experiment [19] is 0.519 µM (≈ 1.56 µg/mL); in the experiment on Escherichia coli E44813, 4.16 µM (≈ 12.5 µg/mL); in [20], at least 41.6 µM; in experiment [21], 0.519 µM (≈ 1.56 µg/mL); in [22], 0.26 µM (≈ 0.78 µg/mL); in [23] it was 0.519 µM (≈ 1.56 µg/mL). The minimum inhibitory concentration (MIC) amounted to 0.0083 µM (≈ 0.0249 µg/mL) in [17] and 8.32 µM (≈ 25 µg/mL) in [24].
On to `CSCC[C@H](NC(=O)[C@H](CCCCN)NC(=O)[C@@H](NC(=O)[C@H](CCCN=C(N)N)NC(=O)[C@H](CCCCN)NC(=O)[C@H](Cc1c[nH]c2ccccc12)NC(=O)[C@H](Cc1ccccc1)NC(=O)[C@H](CCCN=C(N)N)NC(=O)[C@H](CCCCN)NC(=O)[C@H](CC(C)C)NC(=O)[C@H](CCCCN)NC(=O)[C@@H](N)CCCN=C(N)N)C(C)C)C(=O)O` [RKLKRFWKRVKM], for which the minimum inhibitory concentration (MIC) in experiment [25] was 14.9 µM (≈ 25 µg/mL); in [26] it was 29.8 µM (≈ 50 µg/mL); in experiment [27], at least 239 µM; in [28], 29.8 µM (≈ 50 µg/mL); in experiment [29], 14.9 µM (≈ 25 µg/mL).
